Experimental findings from ChEMBL document CHEMBL1140682, “A novel series of potent cytotoxic agents targeting G2/M phase of the cell cycle and demonstrating cell killing by apoptosis in human breast cancer cells” (Bioorg Med Chem Lett, 2007) are described below.

SMILES strings stand for the structures. pIC50: −log10 of the molar value. Calls of active or inactive are those of the source. The rule behind the calls is not given here.

Assay [1] relates to MDA-MB-468. The assay can be described thus: Cell cycle arrest in MDA-MB-468 cells by accumulation at G2/M phase at 4.0 uM after 24 hrs. The class given is functional, Homo sapiens.
Assay [2] has as its system MDA-MB-468. The assay is described as follows: Induction of apoptosis in MDA-MB-468 cells assessed as apoptotic bodies at 8.0 uM after 24 hrs by electron microscopy. The class given is functional, cell-based. The following applies: Homo sapiens.
Assay [3] concerns MDA-MB-468. The assay is described as follows: Cell cycle arrest in MDA-MB-468 cells by accumulation at G2/M phase at 8.0 uM after 24 hrs. The class given is functional, Homo sapiens.
Assay [4] has as its system MDA-MB-468. The assay can be described thus: Induction of apoptosis in MDA-MB-468 cells assessed as blebbing at 8.0 uM after 24 hrs by electron microscopy. The class given is functional, cell-based. The following applies: Homo sapiens.
Assay [5] has as its system MDA-MB-468. The assay is described as follows: Cell cycle arrest in MDA-MB-468 cells by accumulation at G0/G1 phase at 4.0 uM after 24 hrs. In kind it is functional, Homo sapiens.
For assay [6], the system named is MDA-MB-468. The assay can be described thus: Cell cycle arrest in MDA-MB-468 cells by accumulation at S phase at 4.0 uM after 24 hrs. In kind it is functional, Homo sapiens.
Assay [7] has as its system MDA-MB-468. The assay is described as follows: Induction of apoptosis in MDA-MB-468 cells assessed as p53 levels at 8.0 uM. In kind it is functional, cell-based. The following applies: Homo sapiens.
In assay [8] the test system is MDA-MB-468. The assay is described as follows: Cell cycle arrest in MDA-MB-468 cells by accumulation at G0/G1 phase at 8.0 uM after 24 hrs. In kind it is functional, Homo sapiens.
The test system of assay [9] is MDA-MB-468. The assay can be described thus: Cell cycle arrest in MDA-MB-468 cells by accumulation at G0/G1 phase at 0.5 uM after 24 hrs. In kind it is functional, Homo sapiens.
The test system of assay [10] is MDA-MB-468. The assay is described as follows: Induction of apoptosis in MDA-MB-468 cells assessed as vacuolization at 8.0 uM after 24 hrs by electron microscopy. In kind it is functional, cell-based. As to conditions: Homo sapiens.
The test system of assay [11] is MDA-MB-468. The assay can be described thus: Induction of apoptosis in MDA-MB-468 cells assessed as DNA fragmentation after 24 hrs by TUNEL assay. In kind it is functional, cell-based. The following applies: Homo sapiens.
Assay [12] concerns MDA-MB-468. The assay can be described thus: Cell cycle arrest in MDA-MB-468 cells by accumulation at G2/M phase at 1.0 to 2.0 uM by flow cytometry. In kind it is functional, cell-based. The following applies: Homo sapiens. On the technique in general: In flow cytometry, cells or beads pass a laser one at a time.
The test system of assay [13] is MDA-MB-468. The assay can be described thus: Cell cycle arrest in MDA-MB-468 cells by accumulation at S phase at 0.5 uM after 24 hrs. In kind it is functional, Homo sapiens.
Assay [14] deals with MDA-MB-468. The assay can be described thus: Induction of apoptosis in MDA-MB-468 cells assessed as nuclear condensation at 8.0 uM after 24 hrs by electron microscopy. The class given is functional, cell-based. The following applies: Homo sapiens.
Assay [15] has as its system MDA-MB-468. The assay is described as follows: Inhibition of human ER negative MDA-MB-468 cells by MTT assay. The class given is functional, cell-based. On the technique in general: Tetrazolium assays rely on reduction of a dye to a coloured formazan, in cell work by metabolically active cells.
The subject of assay [16] is MDA-MB-468. The assay can be described thus: Induction of apoptosis in MDA-MB-468 cells assessed as alteration in p53 localization. The following applies: Homo sapiens. In kind it is functional, cell-based.
In assay [17] the test system is MDA-MB-468. The assay is described as follows: Cell cycle arrest in MDA-MB-468 cells by accumulation at S phase at 8.0 uM after 24 hrs. In kind it is functional, Homo sapiens.
Assay [18] deals with MDA-MB-468. The assay is described as follows: Cell cycle arrest in MDA-MB-468 cells by accumulation at G2/M phase at 0.5 uM after 24 hrs. The class given is functional, Homo sapiens.

By pIC50 is commonly meant the IC50 on a negative log10 scale, so that one unit is a factor of ten. Low readings indicate a high IC50, high ones a low IC50. As for `c1ccc(Sc2nc(Sc3ccccn3)nc(Sc3ccccn3)n2)nc1`, the Activity was 40.5% in [1]; 42.9% in assay [3]; 33.6% in [5]; 25.9% in assay [6]; 36.3% in assay [8]; 49% in [9]. Moreover, the Activity entry was “Dose-dependent effect” in [11]; 29.2% in [13]; “Dose-dependent effect” in [16]; 20.8% in assay [17]; 21.8% in assay [18]. Besides, the result in [2], in assay [4], in assay [10], in assay [12] and in [14] was Active. Further, the outcome in assay [7] was inactive. In addition, in assay [15], the pIC50 was 5.80.
